The values that follow are results of earlier work, collected in patent US20130065255A1, “Biomarker to Measure Drug Efficacy in Enteropathic Disease” (priority 2011, published 2013).

Each structure is given as a SMILES string.

For series [1] the following is noted: 20 mg simvastatin dose, healthy volunteers, Park et al.
The conditions of series [2]: humans.

As to `CCC(C)(C)C(=O)O[C@H]1C[C@@H](C)C=C2C=C[C@H](C)[C@H](CC[C@@H](O)C[C@@H](O)CC(=O)O)[C@H]21` [Simvastatin acid, simvastatin acid], in series [1], the “SVA Cmax” value is 1.2 ± 1.0 ng/mL.

For the compound `Cc1ncc2n1-c1ccc(Cl)cc1C(c1ccccc1F)=NC2` [midazolam], in series [2], the “dose excreted unchanged in the urine” value is given as “less than 1%”.
